Laboratory results as given in PubChem BioAssay AID863 (NMMLSC, 2007).
The source made the active and inactive calls. How the calls were made is not given here.

Molecular target: fMet-Leu-Phe receptor (Homo sapiens) (UniProt P21462)
Test: formyl peptide receptor 1 antagonism, calcium readout – U937 cells, fMLFF stimulus, Fluo4, flow cytometry, SAR follow-up (AID 863)
Details: FPR-expressing U937 cells, fMLFF-induced Fluo4 calcium flux, 80 s, hits give high values, concentration not given here

Sequence of fMet-Leu-Phe receptor (Homo sapiens) (P21462 whole entry, looked up): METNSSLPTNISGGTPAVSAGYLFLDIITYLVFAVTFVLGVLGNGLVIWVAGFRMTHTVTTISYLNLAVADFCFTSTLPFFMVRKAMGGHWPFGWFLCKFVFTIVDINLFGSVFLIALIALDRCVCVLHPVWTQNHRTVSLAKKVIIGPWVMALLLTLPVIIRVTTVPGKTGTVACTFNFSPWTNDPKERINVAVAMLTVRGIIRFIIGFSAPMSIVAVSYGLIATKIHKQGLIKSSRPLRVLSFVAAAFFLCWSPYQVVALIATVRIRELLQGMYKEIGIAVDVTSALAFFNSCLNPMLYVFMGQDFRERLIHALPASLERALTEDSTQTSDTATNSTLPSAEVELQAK

SMILES | inhibition
Cc1nc2c(-c3ccc(Cl)cc3)c(C(F)(F)F)[nH]n2c(=O)c1Cc1ccccc1 | 98.1%
COc1ccc(-c2c(C(F)(F)F)oc3cc(OC(=O)c4ccco4)ccc3c2=O)cc1OC | 93%
COc1ccc(OC)c(C2/C(=C(\O)c3ccccc3)C(=O)C(=O)N2c2cccnc2)c1 (centres undefined) | 40.7% (inactive)
O=C(C1=C(O)C(=O)N(CCc2ccccc2)C1c1ccc(Cl)cc1)c1cccs1 (centres undefined) | 81.3% (inactive)
COc1ccc(C2/C(=C(\O)c3ccccc3)C(=O)C(=O)N2CCCn2ccnc2)c(OC)c1 (centres undefined) | 99.5%
COc1ccc(C2C(C(=O)c3cccs3)=C(O)C(=O)N2CCCn2ccnc2)cc1 (centres undefined) | 96.9%
COc1ccc(C2C(C(=O)c3cccs3)=C(O)C(=O)N2CCN2CCOCC2)c(OC)c1 (centres undefined) | 72.3% (inactive)
COCCN1C(=O)C(=O)/C(=C(/O)c2ccccc2)C1c1cc(OC)ccc1OC (centres undefined) | 97.5%
CCc1cc2c(=O)c(-c3nc4ccccc4n3C)c(C)oc2cc1OC(C)=O | 101%
COc1ccc(C2C(C(=O)c3ccco3)=C(O)C(=O)N2CCN2CCOCC2)c(OC)c1 (centres undefined) | 58.1% (inactive)
CCCCCCN1C(=O)C(=O)/C(=C(\O)c2ccccc2)C1c1ccc(O)c(OC)c1 (centres undefined) | 44% (inactive)
O=C(Oc1ccc2c(=O)c(-c3ccccc3Cl)c(C(F)(F)F)oc2c1)c1cccs1 | 185%
COc1ccc(-c2c(C(F)(F)F)oc3cc(OC(=O)c4cccnc4)ccc3c2=O)cc1OC | 85.6% (inactive)
COc1ccccc1-c1c(C(F)(F)F)oc2cc(OC(=O)c3ccco3)ccc2c1=O | 98.8%
